Paper PMC5769128, “Human UDP-Glucuronosyltransferase 2B4 and 2B7 Are Responsible for Naftopidil Glucuronidation in Vitro” (Frontiers in Pharmacology, 2018)
Where two headings read alike, the source gives them in different places.

Legend:
recombinant human UGT1A6 = target: T1, recombinant human UGT1A6 (Homo sapiens, UniProt P19224); test: UGT reaction screening of NAF enantiomers, UGT1A6; conditions: 10 μM substrate, 45 min
T1 sequence (P19224 27-532): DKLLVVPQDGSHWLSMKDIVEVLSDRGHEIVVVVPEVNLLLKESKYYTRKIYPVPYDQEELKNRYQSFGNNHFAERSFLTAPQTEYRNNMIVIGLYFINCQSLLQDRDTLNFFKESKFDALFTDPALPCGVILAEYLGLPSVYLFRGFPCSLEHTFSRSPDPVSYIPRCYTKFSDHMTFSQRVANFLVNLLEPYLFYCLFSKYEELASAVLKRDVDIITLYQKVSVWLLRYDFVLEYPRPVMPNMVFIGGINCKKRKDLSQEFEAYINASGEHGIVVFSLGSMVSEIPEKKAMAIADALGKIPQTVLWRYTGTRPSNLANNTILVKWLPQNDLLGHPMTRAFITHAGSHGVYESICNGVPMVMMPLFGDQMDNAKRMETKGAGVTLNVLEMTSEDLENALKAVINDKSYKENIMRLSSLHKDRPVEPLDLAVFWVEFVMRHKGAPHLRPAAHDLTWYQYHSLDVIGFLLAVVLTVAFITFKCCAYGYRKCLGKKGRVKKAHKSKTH

UGT1A1 = target: T2, UGT1A1 (Homo sapiens, UniProt P22309); test: Inhibition screening of recombinant UGTs by NAF enantiomers, UGT1A1 (4-MU); format: in vitro ADME; conditions: recombinant UGT1A1, probe 4-MU, 10 μM NAF enantiomer, read-out: Inhibition of 4-MU-G formation
T2 construct: purchased BD Gentest
T2 sequence (P22309 26-533): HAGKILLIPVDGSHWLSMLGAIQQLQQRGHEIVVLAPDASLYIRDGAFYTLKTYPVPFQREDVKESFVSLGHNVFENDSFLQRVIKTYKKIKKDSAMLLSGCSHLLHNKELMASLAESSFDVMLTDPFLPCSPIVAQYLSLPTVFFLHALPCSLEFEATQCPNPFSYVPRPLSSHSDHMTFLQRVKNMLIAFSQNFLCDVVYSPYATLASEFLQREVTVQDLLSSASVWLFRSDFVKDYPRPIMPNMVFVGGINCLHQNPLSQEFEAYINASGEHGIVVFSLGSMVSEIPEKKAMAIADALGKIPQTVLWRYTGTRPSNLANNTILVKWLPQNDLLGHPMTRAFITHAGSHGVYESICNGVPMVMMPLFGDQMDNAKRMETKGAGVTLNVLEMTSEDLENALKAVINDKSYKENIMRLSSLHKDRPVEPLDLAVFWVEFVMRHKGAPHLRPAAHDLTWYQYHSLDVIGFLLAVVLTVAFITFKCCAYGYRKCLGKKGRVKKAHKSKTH
Experimental: (§1) The inhibition screening study was performed by investigating the 12 recombinant UGTs with 10 and 100 μM NAF enantiomer. […] 4-MU, as a non-specific substrate, was added to the other incubated samples. Instead of NAF enantiomers, the same volume of water was added to be the control sample. […] The formation of 4-MU-G and TFP-G produced from the 12 incubation system were analyzed by HPLC. The instrument parameters for the LC were as follows: system, Agilent 1260; Agilent Eclipse Plus C18 (2.1 mm × 50 mm, 1.8 μm, Santa Clara, CA, United States); mobile phase, methanol: 0.1% formic acid in water (0–3 min, 35:65; 3.1–4.5 min, 65:35; 4.6–5 min, 35:65); flow rate, 0.4 mL/min; column temperature, 25°C; and injection volume, 2 μL. The retention times of 4-MU, 4-MU-G, TFP, TFP-G, and MU (IS) were 1.5, 0.5, 2.2, 1.8, and 1.0 min, respectively.

UGT2B7 [1] = target: T3, UGT2B7 (Homo sapiens, UniProt P16662); test: Inhibition screening of recombinant UGTs by NAF enantiomers, UGT2B7 (4-MU); format: in vitro ADME; design: purchased BD Gentest; conditions: recombinant UGT2B7, probe 4-MU, read-out: Inhibition of 4-MU-G formation; for inhibition at 10 μM: 10 μM NAF enantiomer; for inhibition at 100 μM: 100 μM NAF enantiomer
T3 sequence (P16662 24-529): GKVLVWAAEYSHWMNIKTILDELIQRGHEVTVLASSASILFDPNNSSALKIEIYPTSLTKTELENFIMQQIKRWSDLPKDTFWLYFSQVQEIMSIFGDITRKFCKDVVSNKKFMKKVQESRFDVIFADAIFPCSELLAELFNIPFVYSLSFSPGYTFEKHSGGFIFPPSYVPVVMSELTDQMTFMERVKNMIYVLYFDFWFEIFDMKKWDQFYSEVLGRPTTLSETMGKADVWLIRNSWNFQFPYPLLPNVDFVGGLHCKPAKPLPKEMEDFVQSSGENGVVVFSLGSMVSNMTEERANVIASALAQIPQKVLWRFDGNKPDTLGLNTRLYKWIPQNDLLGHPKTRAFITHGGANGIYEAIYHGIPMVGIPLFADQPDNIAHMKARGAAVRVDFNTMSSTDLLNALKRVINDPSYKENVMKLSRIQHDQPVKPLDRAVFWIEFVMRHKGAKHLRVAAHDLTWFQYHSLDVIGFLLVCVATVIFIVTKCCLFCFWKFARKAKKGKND
Experimental: as §1

UGT2B17 = target: T4, UGT2B17 (Homo sapiens, UniProt O75795); test: Inhibition screening of recombinant UGTs by NAF enantiomers, UGT2B17 (4-MU); format: in vitro ADME; conditions: recombinant UGT2B17, probe 4-MU, 100 μM NAF enantiomer, read-out: Inhibition of 4-MU-G formation
T4 construct: purchased BD Gentest
T4 sequence (O75795 24-530): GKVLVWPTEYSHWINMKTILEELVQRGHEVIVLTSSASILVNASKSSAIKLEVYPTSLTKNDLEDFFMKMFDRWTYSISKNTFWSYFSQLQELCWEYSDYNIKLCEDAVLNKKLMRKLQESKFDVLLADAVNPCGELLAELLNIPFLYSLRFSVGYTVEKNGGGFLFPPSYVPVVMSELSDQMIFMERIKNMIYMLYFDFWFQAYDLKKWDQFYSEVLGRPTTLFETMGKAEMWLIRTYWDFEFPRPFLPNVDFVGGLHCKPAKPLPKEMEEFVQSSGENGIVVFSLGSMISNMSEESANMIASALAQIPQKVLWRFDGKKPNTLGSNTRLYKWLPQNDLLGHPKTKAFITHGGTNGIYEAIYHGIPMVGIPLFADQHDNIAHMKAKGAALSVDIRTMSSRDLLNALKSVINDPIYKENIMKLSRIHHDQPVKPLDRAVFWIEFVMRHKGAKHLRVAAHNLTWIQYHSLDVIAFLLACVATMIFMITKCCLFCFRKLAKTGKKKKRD
Experimental: as §1

UGT2B7 [2] = target: T3, UGT2B7; test: biochemical
Experimental: (§2) The inhibition of UGT1A9 and UGT2B7 by NAF enantiomer was investigated using the pooled HLM, UGT1A9, and UGT2B7 with concentrations similar to that of the NAF enantiomer. Propofol, which was used as the specific substrate of UGT1A9, was added to the incubation. […] Inhibitor constants (Ki value) were estimated by fitting the expressions for competitive, non-competitive, and mixed inhibition models with Dixon plots and Lineweaver–Burk plots.

UGT2B7 [3] = target: T3, UGT2B7; test: Inhibition of zidovudine glucuronidation in pooled HLM; format: in vitro ADME; design: tissue BD Gentest; host or cells: pooled human liver microsomes; conditions: substrate zidovudine, enzyme HLM
UGT2B7 [4] = target: T3, UGT2B7; conditions: substrate zidovudine, enzyme UGT2B7
Experimental: as §2

SMILES | Glucuronide formation by UGT1A6 (recombinant human UGT1A6) | inhibition at 10 μM (UGT1A1) | inhibition at 10 μM (UGT2B7 [1]) | inhibition at 100 μM (UGT2B7 [1]) | inhibition at 100 μM (UGT2B17) | Ki (UGT2B7 [2]) | Inhibition type (UGT2B7 [3]) | Ki (UGT2B7 [3]) | Inhibition type (UGT2B7 [4])
COc1ccccc1N1CCN(C[C@H](O)COc2cccc3ccccc23)CC1 [S(-)-NAF] | no activity | > 50% | > 50% | > 75% | > 75% | 18.5 ± 3.3 µM | Competitive | 35.7 ± 4.1 µM | Competitive
COc1ccccc1N1CCN(C[C@@H](O)COc2cccc3ccccc23)CC1 [R(+)-NAF] | No R(+)-NAF-G was detected | > 50% | > 50% | > 75% | > 75% | 12.1 ± 2.2 µM | Competitive | 64.9 ± 7.8 µM | Competitive
